Converted amounts (≈) assume the structure as drawn.
System: HIV
Assay: Anti-HIV activity in cell culture: inhibition of HIV replication, virus in supernatant quantified by reinfection of human fetal lung cells
Type: cell-based
Conditions: Human immunodeficiency virus 1; chronically HIV-infected human fetal lung cells; concentration causing 50 % inhibition of virus replication
Description: Die Verbindungen der vorliegenden Erfindung weisen eine antivirale Wirksamkeit auf und können somit beispielsweise zur Behandlung von HIV-bedingten Krankheiten oder Infektionen eingesetzt werden. Der Nachweis der Anti-HIV-Wirksamkeit erfolgt in Zell- oder Gewebekulturen, wobei die direkte Hemmung der HIV-Replikation gemessen wird.
Zunächst erfolgt eine Behandlung von HIV-infizierten humanen T-Lymphomzellen bzw. HIV-infizierten humanen fetalen Lungenzellen mit der zu untersuchenden Verbindung in Verdünnungsreihe. Anschließend erfolgt eine Quantifizierung der Virusmenge im Überstand durch Neuinfektion von humanen fetalen Lungenzellen. Die Abnahme der entstandenen HIV-positiven Zellkolonien gilt als direktes Maß für die antivirale Wirksamkeit der untersuchten Verbindung.
In der folgenden Tabelle sind diejenigen Konzentrationen angegeben, die eine 50 %-ige Hemmung der Virusreplikation bewirken (IC₅₀-Werte).

Row | SMILES | IC50 [µg/mL]
1 | CCCCCCCCCCCCOC(CCCCCCCCCCCC)COP(=O)([O-])OCC[N+](C)(C)C (stereo not drawn) [Beispiel 2, 2-Dodecyloxytetradecvl-1-phosphorsäure-monocholinester] | 1 (≈ 1.77 µM)
2 | CCCCCCCCCCCCSCC(CCCCCCCCCCC)COP(=O)([O-])OCC[N+](C)(C)C (stereo not drawn) [Beispiel 3, 2-Dodecylmercaptomethyl-tridecyl-1-phosphorsäure-monocholinester] | 12 (≈ 20.7 µM)
3 | CCCCCCCCCCCCSC(CCCCCCCCCCCC)COP(=O)([O-])OCC[N+](C)(C)C (stereo not drawn) [Beispiel 1, 2-Dodecylmercapto-tetradecyl-1-phosphorsäure-monocholinester] | 30 (≈ 51.7 µM)

From EP0506704B1, “USE OF ALKYL PHOSPHOLIPIDS AS ANTIVIRAL DRUGS, AS WELL AS NEW COMPOUNDS” (BOEHRINGER MANNHEIM GMBH, priority 1989, dated 1991)
